According to publication PMC4789591, “Involvement of Daphnia pulicaria Sir2 in regulating stress response and lifespan” (Aging (Albany NY), 2016):

Target: T1, Daphnia Sir2 (Daphnia pulicaria, UniProt A0A0U3BSS1)
T1 construct: full-length ORF, N-terminal FLAG tag, pcDNA3.1-, in vitro translated in rabbit reticulocyte lysate (TNT T7), not purified; calculated mass 67 kD
T1 sequence (A0A0U3BSS1 1-601): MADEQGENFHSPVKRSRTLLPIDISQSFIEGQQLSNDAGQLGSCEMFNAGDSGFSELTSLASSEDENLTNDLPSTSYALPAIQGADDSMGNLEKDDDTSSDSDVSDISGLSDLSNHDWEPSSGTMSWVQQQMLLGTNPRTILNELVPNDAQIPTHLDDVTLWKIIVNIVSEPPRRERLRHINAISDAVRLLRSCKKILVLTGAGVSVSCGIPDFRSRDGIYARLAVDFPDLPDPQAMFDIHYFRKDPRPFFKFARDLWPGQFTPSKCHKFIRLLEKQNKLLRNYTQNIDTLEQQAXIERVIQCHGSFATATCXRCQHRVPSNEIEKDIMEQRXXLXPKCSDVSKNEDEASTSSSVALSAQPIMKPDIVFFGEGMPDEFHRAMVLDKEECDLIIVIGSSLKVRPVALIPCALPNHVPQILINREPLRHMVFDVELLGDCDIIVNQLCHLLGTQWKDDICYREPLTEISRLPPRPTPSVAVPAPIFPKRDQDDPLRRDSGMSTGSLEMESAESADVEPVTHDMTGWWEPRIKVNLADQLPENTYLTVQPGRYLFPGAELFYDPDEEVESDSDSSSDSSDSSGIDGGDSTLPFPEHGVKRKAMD
Test: fluorogenic acetylated-peptide deacetylase assay (Abcam ab156065)
Type: biochemical
Conditions: in vitro translated protein in reticulocyte lysate, lysate background subtracted; inhibitor concentration not told for this test; peptidase-coupled

## NC(=O)C1CCCc2c1[nH]c1ccc(Cl)cc21 (stereo not shown) [Ex527]
  inhibition of deacetylase activity: human recombinant Sirt1 as well as Daphnia Sir2 activity is significantly diminished by the inhibitor
